According to patent US20240050428A1 (Cullgen (Shanghai), Inc., priority 2020, published 2024):
Where two headings read alike, the source gives them in different places.

Experiments:
[1] = tested on: MV4;11 cells; experiment: Cell viability assay (CellTiter-Glo) in MV4;11 cells, alone or with gilteritinib; type: cell-based; settings: Homo sapiens, MV4;11 cells, three days, CellTiter-Glo, read-out: MV4
[2] = tested on: MOLM-13 cells; experiment: Cell viability assay (CellTiter-Glo) in MOLM-13 cells, alone or with gilteritinib; type: cell-based; settings: Homo sapiens, MOLM-13 cells, three days, CellTiter-Glo
[3] = MV4-11, 72 h, compound alone (without gilteritinib), 11 IC50
[4] = MV4-11, 72 h, compound with gilteritinib 10 nM, 11 IC50 gilteritinib
[5] = MOLM-13, 72 h, compound alone (without gilteritinib), read-out: MOLM-13 IC50
[6] = MOLM-13, 72 h, compound with gilteritinib 20 nM, read-out: MOLM-13 IC50 gilteritinib

O=C1CCC(N2C(=O)c3ccc(NCCC[C@H]4C[C@H](n5cc(-c6ccc(Cl)cn6)cn5)C4)cc3C2=O)C(=O)N1 (stereo partly drawn) [GS-443, 5-((3-(trans-3-(4-(5-chloropyridin-2-yl)-1H-pyrazol-1-yl)cyclobutyl)propyl)amino)-2-(2,6-dioxopiperidin-3-yl)isoindoline-1,3-dione]
IC50 [1, 3]: 100 to 1000 nM | IC50 [1, 4]: 100 to 1000 nM | IC50 [2, 5]: < 10 nM | IC50 [2, 6]: > 1000 nM

Cc1cccc(-c2cn([C@H]3C[C@H](CNc4ccc5c(c4)C(=O)N(C4CCC(=O)NC4=O)C5=O)C3)nc2C(F)F)n1 (stereo partly drawn) [GS-444, 5-(((trans-3-(3-(difluoromethyl)-4-(6-methylpyridin-2-yl)-1H-pyrazol-1-yl)cyclobutyl)methyl)amino)-2-(2,6-dioxopiperidin-3-yl)isoindoline-1,3-dione]
IC50 [1, 3]: 10 to 100 nM | IC50 [1, 4]: < 10 nM | IC50 [2, 5]: 10 to 100 nM | IC50 [2, 6]: < 10 nM

O=C1CCC(N2C(=O)c3ccc(NC[C@H]4C[C@H](n5cc(-c6cccc(N[C@H]7CC[C@@H](O)CC7)n6)c(C6CC6)n5)C4)cc3C2=O)C(=O)N1 (stereo partly drawn) [GS-445, 5-(((trans-3-(3-cyclopropyl-4-(6-((cis-4-hydroxycyclohexyl)amino)pyridin-2-yl)-1H-pyrazol-1-yl)cyclobutyl)methyl)amino)-2-(2,6-dioxopiperidin-3-yl)isoindoline-1,3-dione]
IC50 [1, 3]: 100 to 1000 nM | IC50 [1, 4]: 100 to 1000 nM | IC50 [2, 5]: 100 to 1000 nM | IC50 [2, 6]: 100 to 1000 nM

Cc1ccc(-c2cnn([C@H]3C[C@H](CCCNc4ccc5c(c4)C(=O)N(C4CCC(=O)NC4=O)C5=O)C3)c2)nc1 (stereo partly drawn) [GS-446, 2-(2,6-dioxopiperidin-3-yl)-5-((3-(trans-3-(4-(5-methylpyridin-2-yl)-1H-pyrazol-1-yl)cyclobutyl)propyl)amino)isoindoline-1,3-dione]
IC50 [1, 3]: 100 to 1000 nM | IC50 [1, 4]: 10 to 100 nM | IC50 [2, 5]: > 1000 nM | IC50 [2, 6]: 10 to 100 nM

O=C1CCC(N2C(=O)c3ccc(NCCC[C@H]4C[C@H](n5cc(-c6cccc(C7CC7)n6)cn5)C4)cc3C2=O)C(=O)N1 (stereo partly drawn) [GS-447, 5-((3-(trans-3-(4-(6-cyclopropylpyridin-2-yl)-1H-pyrazol-1-yl)cyclobutyl)propyl)amino)-2-(2,6-dioxopiperidin-3-yl)isoindoline-1,3-dione]
IC50 [1, 3]: 10 to 100 nM | IC50 [1, 4]: < 10 nM | IC50 [2, 5]: 100 to 1000 nM | IC50 [2, 6]: 10 to 100 nM

O=C1CCC(N2C(=O)c3ccc(NC[C@H]4C[C@H](n5cc(N6CCCCC6)c(C6CC6)n5)C4)cc3C2=O)C(=O)N1 (stereo partly drawn) [GS-448, 5-(((trans-3-(3-cyclopropyl-4-(piperidin-1-yl)-1H-pyrazol-1-yl)cyclobutyl)methyl)amino)-2-(2,6-dioxopiperidin-3-yl)isoindoline-1,3-dione]
IC50 [1, 3]: 100 to 1000 nM | IC50 [1, 4]: 10 to 100 nM | IC50 [2, 5]: > 1000 nM | IC50 [2, 6]: 100 to 1000 nM

Cc1cccc(-c2cn([C@H]3C[C@H](CNc4ccc5c(c4)C(=O)N(C4CCC(=O)NC4=O)C5=O)C3)nc2C)n1 (stereo partly drawn) [GS-449, 2-(2,6-dioxopiperidin-3-yl)-5-(((trans-3-(3-methyl-4-(6-methylpyridin-2-yl)-1H-pyrazol-1-yl)cyclobutyl)methyl)amino)isoindoline-1,3-dione]
IC50 [1, 3]: > 1000 nM | IC50 [1, 4]: > 1000 nM | IC50 [2, 5]: > 1000 nM | IC50 [2, 6]: > 1000 nM

O=C1CCC(N2C(=O)c3ccc(NCCCCn4cc(-c5cnc6ccccc6n5)c(C5CC5)n4)cc3C2=O)C(=O)N1 (stereo not shown) [GS-450, 5-((4-(3-cyclopropyl-4-(quinoxalin-2-yl)-1H-pyrazol-1-yl)butyl)amino)-2-(2,6-dioxopiperidin-3-yl)isoindoline-1,3-dione]
IC50 [1, 3]: 10 to 100 nM | IC50 [1, 4]: 10 to 100 nM | IC50 [2, 5]: 100 to 1000 nM | IC50 [2, 6]: 10 to 100 nM

O=C1CCC(N2C(=O)c3ccc(NCCC[C@H]4C[C@H](n5cc(-c6cccc(N7CCC7)n6)cn5)C4)cc3C2=O)C(=O)N1 (stereo partly drawn) [GS-451, 5-((3-(trans-3-(4-(6-(azetidin-1-yl)pyridin-2-yl)-1H-pyrazol-1-yl)cyclobutyl)propyl)amino)-2-(2,6-dioxopiperidin-3-yl)isoindoline-1,3-dione]
IC50 [1, 3]: 10 to 100 nM | IC50 [1, 4]: 10 to 100 nM | IC50 [2, 5]: 100 to 1000 nM | IC50 [2, 6]: 10 to 100 nM

O=C1CCC(N2C(=O)c3ccc(NC[C@H]4C[C@H](n5cc(N6CCC(O)CC6)c(C6CC6)n5)C4)cc3C2=O)C(=O)N1 (stereo partly drawn) [GS-452, 5-(((trans-3-(3-cyclopropyl-4-(4-hydroxypiperidin-1-yl)-1H-pyrazol-1-yl)cyclobutyl)methyl)amino)-2-(2,6-dioxopiperidin-3-yl)isoindoline-1,3-dione]
IC50 [1, 3]: > 1000 nM | IC50 [1, 4]: > 1000 nM | IC50 [2, 5]: > 1000 nM | IC50 [2, 6]: > 1000 nM

CC(C)c1cccc(-c2cnn([C@H]3C[C@H](CCCNc4ccc5c(c4)C(=O)N(C4CCC(=O)NC4=O)C5=O)C3)c2)n1 (stereo partly drawn) [GS-453, 2-(2,6-dioxopiperidin-3-yl)-5-((3-(trans-3-(4-(6-isopropylpyridin-2-yl)-1H-pyrazol-1-yl)cyclobutyl)propyl)amino)isoindoline-1,3-dione]
IC50 [1, 3]: 10 to 100 nM | IC50 [1, 4]: 10 to 100 nM | IC50 [2, 5]: 100 to 1000 nM | IC50 [2, 6]: 10 to 100 nM

CN1CCC(Nc2cccc(-c3cn([C@H]4C[C@H](CNc5ccc6c(c5)C(=O)N(C5CCC(=O)NC5=O)C6=O)C4)nc3C3CC3)n2)CC1 (stereo partly drawn) [GS-454, 5-(((trans-3-(3-cyclopropyl-4-(6-((1-methylpiperidin-4-yl)amino)pyridin-2-yl)-1H-pyrazol-1-yl)cyclobutyl)methyl)amino)-2-(2,6-dioxopiperidin-3-yl)isoindoline-1,3-dione]
IC50 ([1]; 72 h, compound alone (without gilteritinib), 11 IC50): > 1000 nM | IC50 ([1]; 72 h, compound with gilteritinib 10 nM, 11 IC50 gilteritinib): 100 to 1000 nM | IC50 ([2]; 72 h, compound alone (without gilteritinib), read-out: MOLM-13 IC50): > 1000 nM | IC50 ([2]; 72 h, compound with gilteritinib 20 nM, read-out: MOLM-13 IC50 gilteritinib): 100 to 1000 nM

O=C1CCC(N2C(=O)c3ccc(NC[C@H]4C[C@H](n5cc(N6CCNCC6)c(C6CC6)n5)C4)cc3C2=O)C(=O)N1 (stereo partly drawn) [GS-455, 5-(((trans-3-(3-cyclopropyl-4-(piperazin-1-yl)-1H-pyrazol-1-yl)cyclobutyl)methyl)amino)-2-(2,6-dioxopiperidin-3-yl)isoindoline-1,3-dione]
IC50 [1, 3]: > 1000 nM | IC50 [1, 4]: > 1000 nM | IC50 [2, 5]: > 1000 nM | IC50 [2, 6]: > 1000 nM

O=C1CCC(N2C(=O)c3ccc(NC[C@H]4C[C@H](n5cc(-c6ccc(Cl)cc6)c(C6CC6)n5)C4)cc3C2=O)C(=O)N1 (stereo partly drawn) [GS-456, 5-(((trans-3-(4-(4-chlorophenyl)-3-cyclopropyl-1H-pyrazol-1-yl)cyclobutyl)methyl)amino)-2-(2,6-dioxopiperidin-3-yl)isoindoline-1,3-dione]
IC50 [1, 3]: 100 to 1000 nM | IC50 [1, 4]: 10 to 100 nM | IC50 [2, 5]: > 1000 nM | IC50 [2, 6]: 10 to 100 nM

O=C1CCC(N2C(=O)c3ccc(NC[C@H]4C[C@H](n5cc(-c6cccc(Cl)c6)c(C6CC6)n5)C4)cc3C2=O)C(=O)N1 (stereo partly drawn) [GS-457, 5-(((trans-3-(4-(3-chlorophenyl)-3-cyclopropyl-1H-pyrazol-1-yl)cyclobutyl)methyl)amino)-2-(2,6-dioxopiperidin-3-yl)isoindoline-1,3-dione]
IC50 [1, 3]: 10 to 100 nM | IC50 [1, 4]: 10 to 100 nM | IC50 [2, 5]: 100 to 1000 nM | IC50 [2, 6]: 10 to 100 nM

O=C1CCC(N2C(=O)c3ccc(NC[C@H]4C[C@H](n5cc(-c6ccccc6Cl)c(C6CC6)n5)C4)cc3C2=O)C(=O)N1 (stereo partly drawn) [GS-458, 5-(((trans-3-(4-(2-chlorophenyl)-3-cyclopropyl-1H-pyrazol-1-yl)cyclobutyl)methyl)amino)-2-(2,6-dioxopiperidin-3-yl)isoindoline-1,3-dione]
IC50 [1, 3]: 10 to 100 nM | IC50 [1, 4]: < 10 nM | IC50 [2, 5]: 10 to 100 nM | IC50 [2, 6]: < 10 nM
